Consider one compound from paper PMC12687421, “Characterisation of an allosteric site in PLCγ enzymes and implications for development of their specific inhibitors” (Biochemical Journal, 2025).

The target of this assay is T1, PLCγ1^wt (Homo sapiens, UniProt P19174, I813T).
T1 construct: specific activities of PLCγ1^wt and PLCγ2^wt full-length proteins; made in house; host or cells: Escherichia coli T7 Express lysY/Iq
T1 sequence (P19174 1-1291 isoform P19174-2 I813T): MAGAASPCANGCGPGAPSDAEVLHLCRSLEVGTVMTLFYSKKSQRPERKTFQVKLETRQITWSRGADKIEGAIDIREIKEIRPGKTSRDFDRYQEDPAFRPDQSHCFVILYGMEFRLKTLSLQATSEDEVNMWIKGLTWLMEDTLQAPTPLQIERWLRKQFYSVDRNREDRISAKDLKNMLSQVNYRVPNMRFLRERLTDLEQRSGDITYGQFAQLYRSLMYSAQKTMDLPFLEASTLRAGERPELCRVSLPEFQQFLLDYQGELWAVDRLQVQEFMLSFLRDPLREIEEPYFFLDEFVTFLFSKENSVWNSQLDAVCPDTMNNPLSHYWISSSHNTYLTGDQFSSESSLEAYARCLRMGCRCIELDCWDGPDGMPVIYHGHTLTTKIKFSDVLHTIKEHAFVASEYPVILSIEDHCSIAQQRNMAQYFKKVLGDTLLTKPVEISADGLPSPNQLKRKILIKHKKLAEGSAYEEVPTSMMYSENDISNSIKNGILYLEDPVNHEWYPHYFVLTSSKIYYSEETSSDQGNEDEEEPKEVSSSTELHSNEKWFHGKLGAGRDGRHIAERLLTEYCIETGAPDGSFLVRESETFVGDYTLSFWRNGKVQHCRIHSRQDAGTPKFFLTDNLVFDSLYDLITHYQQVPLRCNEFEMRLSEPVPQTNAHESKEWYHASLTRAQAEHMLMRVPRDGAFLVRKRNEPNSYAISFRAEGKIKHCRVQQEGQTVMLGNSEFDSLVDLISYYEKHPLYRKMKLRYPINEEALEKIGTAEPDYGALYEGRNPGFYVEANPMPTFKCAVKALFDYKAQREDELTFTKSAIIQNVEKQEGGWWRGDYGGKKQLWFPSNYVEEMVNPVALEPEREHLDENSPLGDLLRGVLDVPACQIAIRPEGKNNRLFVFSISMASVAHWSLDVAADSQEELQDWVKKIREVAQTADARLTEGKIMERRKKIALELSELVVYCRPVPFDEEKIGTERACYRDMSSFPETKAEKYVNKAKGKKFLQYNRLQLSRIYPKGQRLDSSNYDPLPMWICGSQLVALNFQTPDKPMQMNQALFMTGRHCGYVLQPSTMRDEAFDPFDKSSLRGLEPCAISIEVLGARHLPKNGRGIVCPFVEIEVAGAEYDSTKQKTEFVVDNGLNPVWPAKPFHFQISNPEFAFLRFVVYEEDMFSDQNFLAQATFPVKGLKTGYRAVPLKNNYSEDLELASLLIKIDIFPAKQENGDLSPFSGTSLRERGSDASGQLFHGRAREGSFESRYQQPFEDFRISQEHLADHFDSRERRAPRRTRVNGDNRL
Put plainly: Assay 1 (A1) with FGFR1 kinase domain (phosphorylation), with or without nickel lipids. Type of assay: biochemical. As to the method:
A CLARIOstar plate reader (BMG Labtech) was used to measure the production of the fluorescent product. The excitation and emission wavelengths were 485–15 and 520–20, respectively. Each experiment was performed in at least triplicate; in many cases, nine-fold replicates were generated. The enzyme progress curves were plotted for each concentration of nucleotide using Graphpad Prism software. The initial linear rate of product generation was calculated and converted to a % inhibition when compared with the rate of PLC activity in the absence of nucleotide. These % inhibition values were plotted against the logarithm of the nucleotide concentration in Graphpad Prism and the data fitted with the function (Inhibitor) vs. response–variable slope (four parameters). The resultant fit yielded the IC50 values for the nucleotide inhibition.
The standard XY-69 assay outlined above was followed with the following changes. The PLC activity buffer also contained 10 mM MgCl2. The final concentration of PLCγ1^WT in the assay was 12.5 nM and also contained a 10-fold excess of the FGFR1 kinase domain. The ATP dilution series was first added to the assay plate, followed by the enzyme mix. […] Subsequently, the standard XY-69 liposomes (with or without nickel lipids) were added, and the experiment monitored in the Clariostar as outlined above.

Turning to `Nc1ncnc2c1ncn2[C@@H]1O[C@H](COP(=O)(O)OP(=O)(O)OP(=O)(O)O)[C@@H](O)[C@H]1O` [ATP], the “inhibition with membrane proximity and phospho-PLCγ1 combined” value (10% Ni-lipids and FGFR1-KD, range of ATP concentrations including physiological levels) is recorded as “clear reduction in nucleotide inhibition”. Also, for the setting “FGFR1 kinase domain, no Ni-lipids”, the “PLC activity with increasing ATP in presence of FGFR1 kinase” value is “enhanced PLC activity compared with the control”.
